Reference: patent publication US20240262835A1, “PRMT5 INHIBITING COMPOUNDS AND USES THEREOF” (ANTENGENE DISCOVERY LIMITED, priority 2023, published 2024)
pIC50: −log10 of the molar value.

What was measured:
PRMT5/MEP50 = PRMT5/MEP50 (Homo sapiens (Human), UniProt O14744); assay: MTase-Glo methyl transferase assay (PRMT5 inhibition); type: biochemical; settings: 50 nM PRMT5/MEP50, 25 μM SAM, 5 μM Histone H4 peptide (1-21), read-out: IC50 for PRMT5 inhibiting
Description: The PRMT5 inhibitory activity of test compounds was determined using the MTase-Glo™ assay (Promega), which monitors the product (S-adenosyl homocysteine or SAH) of methyltransferase reactions. The PRMT5 MTase-Glo assays were conducted in a 384-well white ProxiPlate (PerkinElmer, catalog no.: 6008280) in a total volume of 12 μL. The PRMT5 enzymatic reaction (in 4 μL) contained 50 nM PRMT5/MEP50 (Reaction Biology Corp, catalog no.: HMT-22-148), 25 μM S-adenosyl methionine (SAM, Promega), 5 μM Histone H4 peptide (1-21) (BPS Bioscience, catalog no.: 52018-2) and five-fold serially diluted compounds in a reaction buffer of 50 mM Tris (pH 8.0), 50 mM NaCl, 0.01% Tween 20, 0.01% BSA, and 1 mM DTT. The test compounds were pre-incubated with PRMT5/MEP50 and Histone H4 peptide for 20 minutes at room temperature before the addition of SAM to initiate the PRMT5 reaction. The reaction was allowed to proceed for 1 hour at 37° C. and was terminated by 2 μL of 3× MTase-Glo™ Reagent (Promega) and 150 μM EPZ015666 (Selleck, catalog no.: 1616391-65-1). After a 30-minute incubation at room temperature, 6 μL of MTase-Glo™ Detection Solution (Promega) was added and the plate was incubated at room temperature for an additional 30 minutes. The light signal corresponding to the amount of SAH produced by the PRMT5 reaction was subsequently measured using an Envision multimode reader (PerkinElmer). IC50 and Ki values were obtained by analyzing dose-response curves using GraphPad Prism.

[1] = test system: HCT116 parental (wild type) cells; assay: HCT116 cell proliferation assay (CTG), parental cells; type: cell-based, human; settings: Cell Titer-Glo
Description: (§1) Control samples were analyzed in parallel.
(§2) On Day 0, 150 HCT116 parental or HCT116 homozygous MTAP knockout cells were seeded in 96-well plates in McCoy's 5A medium containing 10% fetal bovine serum and pen/strep. And the cells were incubated overnight at 37° C. and 5% CO2.
(§3) On Day 1, cells were treated with 9-point serial dilution of compound, using a top concentration of 50 μM, 1:5 serial dilution steps and, a DMSO-only control. And cells were incubated for 6 days.
(§4) On Day 7, cell viability was measured using a CTG assay Kit (Cell Titer-Glo; Promega, catalog no.: G7573) in accordance with the manufacturer's instructions. Assays plates were read on a EnVision™ Multilabel Reader using the Ultra-Sensitive luminescence model. The data were analyzed by GraphPad Prism 5.0 software, and the dose-effect curve was obtained by fitting the data using nonlinear S-curve regression, from which the IC50 value was calculated.

[2] = test system: HCT116 homozygous MTAP knockout cells; assay: HCT116 cell proliferation assay (CTG), MTAP knockout cells; type: cell-based, human; settings: Cell Titer-Glo
Description: as §1, §2, §3, §4

[3] = target: hERG potassium ion channel (Homo sapiens (Human), UniProt Q12809); assay: hERG potassium ion channel inhibition assay (automated patch-clamp, CHO-hERG cells); type: cell-based; settings: Qpatch, highest test concentration 40.00 μM
hERG potassium ion channel, sequence (Q12809 whole entry): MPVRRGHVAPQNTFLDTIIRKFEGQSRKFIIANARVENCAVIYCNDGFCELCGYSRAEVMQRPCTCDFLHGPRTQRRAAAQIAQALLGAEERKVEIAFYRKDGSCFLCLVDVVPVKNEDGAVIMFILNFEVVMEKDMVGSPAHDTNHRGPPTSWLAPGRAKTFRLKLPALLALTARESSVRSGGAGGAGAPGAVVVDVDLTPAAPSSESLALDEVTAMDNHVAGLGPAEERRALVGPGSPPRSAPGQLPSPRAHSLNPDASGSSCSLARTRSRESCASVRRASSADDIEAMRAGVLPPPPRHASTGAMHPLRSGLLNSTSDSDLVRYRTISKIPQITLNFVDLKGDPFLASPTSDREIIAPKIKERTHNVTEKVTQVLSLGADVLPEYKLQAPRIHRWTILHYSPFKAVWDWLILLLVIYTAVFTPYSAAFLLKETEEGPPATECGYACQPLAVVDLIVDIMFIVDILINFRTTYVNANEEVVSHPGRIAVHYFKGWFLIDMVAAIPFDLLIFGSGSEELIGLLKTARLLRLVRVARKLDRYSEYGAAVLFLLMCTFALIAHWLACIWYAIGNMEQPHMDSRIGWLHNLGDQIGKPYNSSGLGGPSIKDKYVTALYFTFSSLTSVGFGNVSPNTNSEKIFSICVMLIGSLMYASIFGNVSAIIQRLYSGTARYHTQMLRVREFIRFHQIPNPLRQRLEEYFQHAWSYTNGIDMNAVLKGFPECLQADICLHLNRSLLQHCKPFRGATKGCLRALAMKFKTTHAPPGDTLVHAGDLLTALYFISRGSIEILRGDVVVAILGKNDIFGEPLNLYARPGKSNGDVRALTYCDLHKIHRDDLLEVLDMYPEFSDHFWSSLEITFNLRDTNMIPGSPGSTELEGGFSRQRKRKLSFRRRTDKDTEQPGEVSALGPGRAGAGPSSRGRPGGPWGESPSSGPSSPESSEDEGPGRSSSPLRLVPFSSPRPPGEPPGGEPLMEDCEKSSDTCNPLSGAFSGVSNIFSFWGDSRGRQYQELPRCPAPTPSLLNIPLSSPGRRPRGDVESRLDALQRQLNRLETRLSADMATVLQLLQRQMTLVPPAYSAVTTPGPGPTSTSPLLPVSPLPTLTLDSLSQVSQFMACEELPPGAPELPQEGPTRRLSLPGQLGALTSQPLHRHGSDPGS
Description: Drug-hERG interaction was measured by automated patch-clamp methods, with cisapride as positive control.
1.1 CHO-hERG cells were cultured in 175 cm^2 culture bottle. After the cell density grew to 60-80%, the culture medium was removed, washed with 7 mL of phosphate buffered saline (PBS), and then digested with 3 mL Detachin.
1.2 After the digestion was complete, 7 mL culture solution was added for neutralization, and then centrifuged, the clear solution was sucked, and 5 mL culture solution was added for re-suspension to ensure the cell density was 2˜5×10^6/mL.
The process of single-cell high-impedance sealing and whole-cell pattern formation was all automatically completed by Qpatch instrument. After obtaining whole-cell recording mode, the cell was pinching at −80 millivolts. Before giving a 5-second +40 millivolt depolarization stimulus, a 50-millisecond pre-voltage of −50 millivolts was given first, and then repolarized to −50 millivolts for 5 seconds. Go back to −80 millivolts. This voltage stimulation was applied every 15 seconds, recorded for 2 minutes, then extracellular fluid was given and recorded for 5 minutes, and then the administration process began. The concentration of test compound was given from the lowest test concentration for 2.5 minutes per test concentration. After continuous administration of all concentrations, the positive control 3 μM cisapride was given. At least 2 cells were tested for each concentration (n≥2).
4.1 The compound mother liquor was diluted with DMSO, and 10 μL compound stock solution was added to 20 μL DMSO solution, which was continuously 3-fold diluted to 6 DMSO-concentrations.
4.2 4 μL of test compounds in 6 DMSO-concentrations were added to 396 μL extracellular solution and were 100-fold diluted to 6 intermediate concentrations. Then, 80 μL of test compounds in 6 intermediate concentrations were added to 320 μL extracellular solution and were 5-fold diluted to the final concentration to be tested.
4.3 The highest test concentration was 40.00 μM, and six test concentrations were 40.00, 13.33, 4.44, 1.48, 0.49, 0.16 μM, respectively.
4.5 Entire dilution process for test compound preparation was performed by Bravo instrument.
The experimental data were analyzed by GraphPad Prism 5.0 software.

[4] = In vivo pharmacokinetics assay in mice via IV and PO; parameters: species or system ICR mice; settings: IV 1.0 mg/kg
Description: Pharmacokinetics assay for test compounds was performed in mice via IV and PO.
Test compound solution was prepared on the day of administration.
Solvent: IV+PO: 5% DMSO+10% Soultol+85% H2O or saline
Species: ICR mice; SPF level.
Source: Beijing Vital River Laboratory Animal Technology Co., Ltd.
Animal selection: Males. No random grouping
Weighed before dosing, calculated dosage according to body weight. For Groups 1-3, the drug was administered intravenously or intragastrically. For Group 4, the drug administered intragastrically.
For Groups 1-3, at 0.083 h, 0.25 h, 0.5 h, 1 h, 2 h, 4 h, 6 h, 8 h, 24 h, after administration. For Group 4, at 2 h and 4 h after administration.
Blood was collected through the cheeks. For each sample, about 0.05 mL of blood was collected and was added heparin sodium or EDTA-2K as anticoagulant, and was placed on wet ice.
The blood samples were collected and placed on ice and was centrifuged within 1 hour (centrifugation: 6000 g, 3 minutes, 2-8° C.) to separate plasma. Plasma samples were stored in a −80° C. refrigerator prior to analysis.
The pharmacokinetic parameters were calculated using Phoenix WinNonlin8.2.0 based on the blood concentration data at different time points, and AUC0-t, AUC0-∞, MRT0-∞, Cmax, Tmax, and T1/2 and mean values and standard deviations thereof were provided.

[5] = human, microsomes
[6] = Liver microsome metabolic stability (LMS) assay, mouse; settings: mouse liver microsome 0.5 mg protein/mL, 1 μM, NADPH
[7] = Homo sapiens, HCT-116, 6 days treatment

PRMT5/MEP50, sequence (O14744 whole entry): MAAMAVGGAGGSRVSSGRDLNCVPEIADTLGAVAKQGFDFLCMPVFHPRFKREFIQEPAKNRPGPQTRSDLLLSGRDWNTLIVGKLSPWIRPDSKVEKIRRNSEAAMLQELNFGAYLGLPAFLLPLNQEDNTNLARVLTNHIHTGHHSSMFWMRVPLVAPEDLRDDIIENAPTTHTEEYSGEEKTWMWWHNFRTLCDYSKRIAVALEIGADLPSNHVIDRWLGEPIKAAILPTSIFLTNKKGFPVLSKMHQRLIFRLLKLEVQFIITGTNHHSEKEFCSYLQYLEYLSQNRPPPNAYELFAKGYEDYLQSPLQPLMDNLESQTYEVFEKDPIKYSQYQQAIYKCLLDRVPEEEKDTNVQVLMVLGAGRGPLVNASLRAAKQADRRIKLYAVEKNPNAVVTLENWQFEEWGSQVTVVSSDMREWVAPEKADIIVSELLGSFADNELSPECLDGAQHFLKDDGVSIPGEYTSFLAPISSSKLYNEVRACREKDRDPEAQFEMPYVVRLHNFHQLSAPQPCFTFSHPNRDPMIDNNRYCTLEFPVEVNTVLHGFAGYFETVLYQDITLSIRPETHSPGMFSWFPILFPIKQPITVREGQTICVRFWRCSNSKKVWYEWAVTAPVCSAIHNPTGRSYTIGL
PRMT5/MEP50, sequence (Q9BQA1 whole entry partner): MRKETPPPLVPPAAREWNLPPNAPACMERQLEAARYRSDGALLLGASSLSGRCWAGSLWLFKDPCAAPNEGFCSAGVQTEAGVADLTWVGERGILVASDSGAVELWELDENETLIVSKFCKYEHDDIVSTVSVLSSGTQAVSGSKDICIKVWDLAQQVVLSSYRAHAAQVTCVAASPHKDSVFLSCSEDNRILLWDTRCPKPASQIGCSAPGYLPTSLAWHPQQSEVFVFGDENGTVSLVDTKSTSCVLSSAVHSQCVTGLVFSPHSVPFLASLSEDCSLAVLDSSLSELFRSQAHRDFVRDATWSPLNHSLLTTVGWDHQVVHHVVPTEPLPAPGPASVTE

Row | Compound | pIC50 (PRMT5/MEP50) | pIC50 [1, 7] | pIC50 [2, 7] | also measured
1 | Cn1ncc(-c2ccc3c(c2)nc(N)c2cncn23)c1-c1c(F)cc2ccccc2c1C#N [Compound 1] | 7.35 | 5.36 | 7.14 | 
2 | Cn1ncc(-c2ccc3c(c2)nc(N)c2cncn23)c1-c1c(F)c(Cl)cc(OC2CC2)c1C#N [Compound 2] | 7.35 | 5.24 | 6.80 | 
3 | C[C@H](c1ncccn1)N(Cc1ccc(C(F)(F)F)cn1)C(=O)c1ccc2nc(N)c3cncn3c2c1 [Compound 3] | 7.62 | 4.80 | 6.81 | 
4 | C[C@H]1CC[C@H](c2ccc3c(c2)CCC(=O)N3)N(C(=O)c2ccc3nc(N)c4cncn4c3c2)C1 [Compound 4] | 7.55 | 6.98 | 7.92 | 
5 | C[C@H](c1ncccn1)N(Cc1ccc(C(F)(F)F)cn1)C(=O)c1ccc2nc(N)n3cncc3c2c1 [Compound 5] | 7.59 | 5.80 | 6.86 | 
6 | C[C@H](c1ncccn1)N(Cc1ccc(C(F)(F)F)cn1)C(=O)c1cc2c(cc1F)nc(N)c1cncn12 [Compound 6] | 7.44 | 6.64 | 7.77 | 
7 | C[C@H](c1ncccn1)N(Cc1ccc(C(F)(F)F)cn1)C(=O)c1cc2c(cn1)nc(N)c1cncn12 [Compound 10] | 7.27 | 6.31 | 7.48 | 
8 | CN(C(=O)c1ccc2nc(N)c3cncn3c2c1)C1COc2cc(C(F)(F)F)ccc21 (centres unmarked) [Compound 11] | 7.29 | 5.11 | 7.19 | 
9 | CN(C(=O)c1cnc2nc(N)c3cncn3c2c1)[C@@H]1COc2cc(C(F)(F)F)ccc21 [Compound 13] | 7.40 | 5.34 | 6.74 | 
10 | CN(C(=O)c1ccc2nc(N)c3cncn3c2c1)C1COc2cc(C(F)(F)F)ccc21 (centres unmarked) [Compound 15] | 7.80 |  |  | pIC50 ([1]; 6 days treatment): 5.27; pIC50 ([2]; 6 days treatment): 7.43; pIC50 [3]: 5.25
11 | CN(C(=O)c1ccc2nc(N)c3cncn3c2c1)C1COc2cc(C(F)(F)F)ccc21 (centres unmarked) [Compound 16] | 6.64 |  |  | 
12 | CN(C(=O)c1ccc2nc(N)c3cncn3c2c1)C1COc2cc(C(F)(F)F)ccc21 (centres unmarked) [Compound 18] | 6.38 |  |  | 
13 | CN(C(=O)c1cc2c(cn1)nc(N)c1cncn12)C1COc2cc(C(F)(F)F)ccc21 (centres unmarked) [Compound 20] | 6.34 |  |  | 
14 | CN(C(=O)c1cc2c(cn1)nc(N)c1cncn12)C1COc2cc(C(F)(F)F)ccc21 (centres unmarked) [Compound 22] | 5.94 |  |  | 
15 | CN(C(=O)c1ccc2nc(N)c3cncn3c2c1)C1COCc2cc(C(F)(F)F)ccc21 (centres unmarked) [Compound 23] | 7.51 | 5.27 | 7.40 | 
16 | CN(C(=O)c1cc2c(cn1)nc(N)c1cncn12)C1CC(F)(F)c2cc(C(F)(F)F)ccc21 (centres unmarked) [Compound 25] | 6.78 |  |  | 
17 | CN(C(=O)c1cc2c(cn1)nc(N)c1cncn12)[C@@H]1CC(F)(F)c2cc(C(F)(F)F)ccc21 [Compound 26] | 7.47 |  |  | pIC50 ([1]; 6 days treatment): 5.18; pIC50 ([2]; 6 days treatment): 7.19; pIC50 [3]: 4.87; Cl [4]: 10.5 mL/min/kg; T1/2 of LMS, H [5]: 2.32 h; T1/2 of LMS, M [6]: 1.98 h
18 | CN(C(=O)c1cc2c(cn1)nc(N)c1cncn12)C1CC(F)(F)c2cc(C(F)(F)F)ccc21 (centres unmarked) [Compound 27] | 5.77 |  |  | 
19 | CN(C(=O)c1ccc2nc(N)c3cncn3c2c1)C1COc2nc(C(F)(F)F)ccc21 (centres unmarked) [Compound 28] | 7.43 | < 4.30 | 6.32 | 
20 | CN(C(=O)c1cc2c(cn1)nc(N)c1cncn12)C1COc2nc(C(F)(F)F)ccc21 (centres unmarked) [Compound 29] | 7.43 | 4.66 | 6.42 | 
21 | CN(C(=O)c1ccc2nc(N)c3cncn3c2c1)C1COc2cc(C(F)(F)F)cnc21 (centres unmarked) [Compound 30] | 7.05 | < 4.30 | 5.40 | 
22 | CN(C(=O)c1cc2c(cn1)nc(N)c1cncn12)C1COc2cc(C(F)(F)F)cnc21 (centres unmarked) [Compound 31] | 7.02 | 5.02 | 5.82 | 
23 | CN(C(=O)c1ccc2nc(N)c3cncn3c2c1)C1COc2cc(C(F)(F)F)ncc21 (centres unmarked) [Compound 32] | 7.60 | 5.09 | 6.54 | 
24 | CN(C(=O)c1cc2c(cn1)nc(N)c1cncn12)C1COc2cc(C(F)(F)F)ncc21 (centres unmarked) [Compound 33] | 7.29 | 4.75 | 6.01 | 
25 | [2H]C([2H])([2H])N(C(=O)c1cc2c(cn1)nc(N)c1cncn12)C1COc2c1ccc(C(F)(F)F)c2F (centres unmarked) [Compound 34] | 7.15 | 4.85 | 6.44 | 
26 | [2H]C([2H])([2H])N(C(=O)c1cc2c(cn1)nc(N)c1cncn12)C1COc2cc(C(F)(F)F)c(F)cc21 (centres unmarked) [Compound 35] | 7.06 | 5.49 | 7.15 | 
27 | [2H]C([2H])([2H])N(C(=O)c1cc2c(cn1)nc(N)c1cncn12)C1COc2cc(C(F)(F)F)cc(F)c21 (centres unmarked) [Compound 36] | 7.28 | 5.02 | 6.96 | 
28 | [2H]C([2H])([2H])N(C(=O)c1ccc2nc(N)c3cncn3c2c1)C1COc2cc(OC(F)F)ccc21 (centres unmarked) [Compound 37] | 7.54 | 4.86 | 6.63 | 
